Results reported in a melting point compilation (Tetko et al.; mined from patent text by program, amines drawn as free bases though some values may be those of a salt).

SMILES	melting point [°C]
CC(O)=C(C#N)C(=O)Nc1ccc([N+](=O)[O-])c(C)c1	231 to 233
CCCCCCC1C(=O)NC2(C(O)C3C=CCCC3)C(=O)OC12C (stereo not drawn)	157
Nc1nc(-c2cc(Cl)ccc2Cl)nc(N2CC(O)CC2C(=O)O)n1 (stereo not drawn)	138 to 145
OCC1CN(Cc2ccccc2)CCN1Cc1ccccc1 (stereo not drawn)	77
COc1c(N2C[C@]3(C)CC[C@]3(N)C2)c(F)cc2c(=O)c(C(=O)O)cn([C@@H]3C[C@@H]3F)c12	123 to 125
CC(C(=O)O)c1ccc2c(c1)Cc1cc([N+](=O)[O-])ccc1-2 (stereo not drawn)	206 to 209
CC(C)(C)OC(=O)NCCNC(=O)c1ncsc1Br	108 to 111
N#CSc1ccc(F)c(C#N)c1	39 to 41
N=C(N)Nc1ncc(CSCCN)s1	150 to 153
NS(=O)(=O)c1cccc(NC(=O)c2cnn3c(C(F)F)cc(-c4ccc(C(F)(F)F)c(OCC(F)(F)F)c4)nc23)c1	241
O=C1COCC2=C1C(c1ccc(F)c(Br)c1)C1=C(CCS1(=O)=O)N2 (stereo not drawn)	> 260
CCOC(=O)C(=Cc1cccn2cc(Br)nc12)N=[N+]=[N-]	149 to 151
CNS(=O)(=O)c1cc(Cl)sc1C(=O)O	103 to 104
Oc1ccc2nc(-c3cccc(O)c3O)oc2c1	256 to 258
COc1cc2c(c(OC)c1OC)-c1cc3c(cc1COC2)OCO3	154 to 156
O=C(O)Cc1ccc(OCc2ccc(Cl)cc2C(=O)O)cc1	205 to 208
CNCC(=O)NC(=O)N(CCCl)N=O	86 to 88

Further lines, results first:

melting point [°C]	SMILES
155 to 157	CCN(CC)CCCCC1CCCCN1CCNC(=O)N1c2ccccc2C(=O)Nc2cccnc21 (stereo not drawn)
145 to 147	Cc1[nH]c(C(=O)Nc2ccc3c(c2)OCCO3)c(C)c1-c1nc2ccc(C(=O)c3ccccc3)cc2[nH]1
110	COc1cc(C(=O)NCCc2ccc(F)cc2)cnc1C(=O)O
95.6	CSc1nn(C)c(=O)n1Cc1cc(-c2ccccc2)ccc1C
78.4 to 79	Cn1c(C(=O)N[C@H]2CCCC[C@H]2C(=O)N[C@H](C#N)CO)cc2ccccc21
191	COC(=O)c1cc(N2CCCC2)c(Oc2ccccc2)c(S(N)(=O)=O)c1
95	OCCCn1c(C2CCCCC2)nc2cc(Cl)ccc21
161 to 162	NC(=O)N(O)C1CCC(c2ccccc2)CC1 (stereo not drawn)
103	CCCCc1nc(-c2ccco2)c2ncn(Cc3ccc(OC)cc3)c2n1
207 to 208	COc1cc(C(=O)NS(=O)(=O)c2ccccc2C)ccc1CN1CCOc2ccc(NC(=O)CC3CCCC3)cc21
108 to 110	CCOc1cccc2cc(C(=O)c3ccc(Cl)cc3)oc12
206 to 207	CC(C)Cn1c(CNC(=O)OC(C)(C)C)c(-c2cccc(F)c2)c2cc(C(=O)O)ccc2c1=O
66 to 67	COCOc1ccc(C=O)c(Cl)c1OCc1ccccc1
166 to 168	NC(=O)c1ccc(OC2CCN(Cc3ccccc3)CC2)cc1
194	Cn1cnnc1C(c1ccc(I)cc1)c1cc2c3c(c1)c(-c1cccc(Cl)c1)cc(=O)n3CC2 (stereo not drawn)
84 to 86	COc1ccc(CCN(C)C(=O)/C=C/c2cccnc2)cc1OC
83 to 85	CCCN(c1ccccc1)S(=O)(=O)c1ccc(C(CC2CCCC2)C(=O)Nc2nc3ccc(OC)nc3s2)cc1 (stereo not drawn)
100 to 102	COc1ccc2c(c1OC)C[C@@H](C1CCN(CCc3ccccc3)CC1)O[C@H]2CN (relative stereo)
278 to 280	CC(=NNC(=N)N)c1sc(-c2ccc(-c3ccccc3)cc2)nc1C
162 to 164	Cc1ccc(-c2c(C)c3cc(O)ccc3n2Cc2ccc(OCCN3CCCCC3)cc2)cc1
163 to 165	NCC(=O)N1c2ccccc2N(Cc2ccccc2)C(=O)[C@H]2CCC[C@H]21 (relative stereo)
